Reference: US9701709B2 (REATA PHARMACEUTICALS, INC., priority 2012, dated 2017)

Experiments:
[1] = test system: H6PD, PGD, TKT, ME1 mRNA in HCT-116 cells; assay: mRNA of NADPH synthesis genes in HCT-116; format: cell-based; conditions: HCT-116, 10 or 50 nM, 24 h
Method: HCT-116 cells were plated in 6-well dishes at a density of 3×10^5 cells/well. […] Each well received the same amount of vehicle. Following treatment, media was removed and cells were harvested using RLT buffer (Qiagen). Lysates were homogenized using QIAShredder columns (Qiagen, Catalog #79654) and RNA was isolated using RNeasy Mini kits (Qiagen, Catalog #74104). For reverse transcription, RNA (1 μg) was combined with Oligo(dT)12-18 primer and H2O in a final volume of 23.25 μL. The mixture was heated to 70° C. for 10 min and then placed on ice. A master mix containing 8 μL 5×1st strand buffer, 2 μL 1 mg/ml BSA, 2 μL 20 mM DTT, 4 μL 5 mM dNTP mix, 0.25 μL RNaseOUTTM and 0.5 μL […]® II reverse transcriptase was added to the RNA mixture and incubated at 42° C. for 1 h. The reaction was inactivated by heating to 70° C. for 10 min. The reaction mixture was diluted 1:3 with H2O prior to use in qPCR. 2.5 μL of the diluted reverse transcription reaction was combined with one set of PCR primers (0.36 μM final concentration), 2× iQTM SYBR® Green Supermix (Bio-Rad, Catalog #170-8885) and H2O to a final volume of 20 pt. Sequences for PCR primers are as follows: Ribosomal protein S9 (RPS9) forward primer [NT] ID NO: 7), reverse primer [NT] ID NO: 8); […] […] The relative abundance of each target gene was determined using the comparative CT method (ΔΔCT). […]

[2] = test system: RANKL-induced osteoclastogenesis in RAW264.7; assay: RANKL-induced osteoclastogenesis (TRAP activity) in RAW264.7; format: cell-based; conditions: Mus musculus, 96 h, 50 ng/mL RANKL, four days, read-out: IC50, RANKL-induced TRAP activity and formation of osteoclasts
Method: STAT3 (124H6) and phospho-STAT3 (Tyr705) monoclonal antibodies were from Cell Signaling Technology. Peroxidase-conjugated Affini-pure Goat anti-Rabbit IgG and Peroxidase-conjugated Affini-pure Goat anti-Mouse IgG were from Jackson ImmunoResearch. Osteoclastogenesis is a multi-step differentiation process that results from the binding of RANKL to its receptor, RANK, on cells of hematopoietic origin. […] RAW 264.7 cells were plated in 24-well plates at a density of 5,000 cells/well. […] The treated cells were incubated for four days to allow differentiation into osteoclasts. Differentiation into osteoclasts was assessed by measuring TRAP activity. In brief, 90 μl of conditioned cell culture media was removed from each test well and aliquoted into triplicate wells (30 μL/well) of a 96-well plate. 170 μL of TRAP Assay buffer (Kamiya Biomedical) was then added to each well and the plate was incubated at 37° C. for 3 hours. Following the incubation, absorbance at 540 nm was determined using a Spectramax M2 plate reading spectrophotometer.

[3] = Plasma protein binding (ultracentrifugation), monkey
[4] = test system: LPS-induced pulmonary inflammation; assay: LPS-induced pulmonary inflammation in mice
CYP3A4/5 = assay: CYP450 inhibition in pooled human liver microsomes, CYP3A4/5; format: in vitro ADME; conditions: read-out: Ki, direct inhibition of CYP3A4/5
Description: In addition, there was little or no evidence of metabolism-dependent inhibition of any of the enzymes tested.

[5] = test system: NQO1 and HMOX1 protein in SH-SY5Y cells; assay: Western blot of Nrf2 target proteins in SH-SY5Y; format: cell-based, human; conditions: 24 h
Method: (§1) SH-SY5Y cells were plated in 6-well plates at a density of 4×10^5 cells per well. BV-2 cells were plated in 6-well plates at a density of 2.5×10^4 cells per well. […] Following treatment, cells were washed twice with cold PBS and harvested in lysis buffer. Cells were sonicated and debris was cleared by centrifugation (10 min @ 18,000 rcf, Beckman Coulter, microfuge 18 centrifuge). Total protein in supernatant was quantified using Bio-Rad protein reagent with BSA as a standard. Equal amounts of total cellular protein were separated on SDS-PAGE, and proteins were transferred to nitrocellulose membrane. Membranes were blocked for 1 hour in TBST (1×TBS with 0.1% Tween-20) containing 5% milk, washed 3 times with TBST, and incubated with primary antibodies overnight at 4° C. NQO1 antibody was from Abcam (#AB2346); HMOX1 (HO-1) antibody was from Santa Cruz (#sc-10789); actin antibody was from Millipore (#MAB 1501). After washing with TBST, secondary antibodies were added in TBST+5% milk for 1 h at room temperature. AffiniPure goat anti-rabbit or anti-mouse IgG secondary antibodies were from Jackson ImmunoResearch (catalog #111-035-144 and #115-035-146, respectively). Membranes were washed in TBST, developed using ECL, and exposed to X-ray film. […] HMOX1 protein was not detected in untreated or RTA 408-treated SH-SY5Y cells. […] The same amount of 63170 (54.6 nM) was required.

[6] = test system: aqueous humor protein after paracentesis; assay: Ocular inflammation (paracentesis) in rabbits; format: in vivo, rabbit; conditions: 0.01% RTA 408 in the formulation, instillation
Method: Each rabbit was given three instillations within 60 min before induction of paracentesis and two instillations within 30 min after induction of paracentesis. Each instillation was 50 μL and given in both eyes. Aqueous humor for 6 animals per time-point was collected 30 min and again 2 h after induction of paracentesis. The amount of inflammation was determined by protein concentration in the aqueous humor.

[7] = test system: NQO1 and HMOX1 protein in BV2 cells; assay: Western blot of Nrf2 target proteins in BV2; format: cell-based, mouse; conditions: BV2, 24 h
Method: as §1

NQO1 activity = NQO1 activity induction in mouse liver, lung, and kidney after PO QD×3; format: in vivo; conditions: mice PO QD×3 25 mg/kg, 6 h after last dose
Method: FIG. 53—NQO1 activity induction in mouse liver, lung, and kidney by 63415. Mice were dosed PO QD×3 with 25 mg/kg. Tissues were collected 6 h after the last dose, and analysis of NQO1 activity was performed.

CC1(C)CC[C@]2(NC(=O)C(C)(F)F)CC[C@]3(C)[C@H](C(=O)C=C4[C@@]5(C)C=C(C#N)C(=O)C(C)(C)[C@@H]5CC[C@]43C)[C@@H]2C1 [RTA 408, N-((4aS,6aR,6bS,8aR,12aS,14aR,14bS)-11-cyano-2,2,6a,6b,9,9,12a-heptamethyl-10,14-dioxo-1,2,3,4,4a,5,6,6a,6b,7,8,8a,9,10,12a,14,14a,14b-octadecahydropicen-4a-yl)-2,2-difluoropropanamide]
Expression of genes involved in NADPH synthesis [1]: dose-dependent increase in expression of genes involved in NADPH synthesis | IC50 [2]: 5 to 10 nM | fraction unbound [3]: 0.05 | BALF cytokines, second study ([4]; 10 mg/kg daily for six days): Significant reductions in TNF-α | BALF cytokines, second study ([4]; 30 mg/kg daily for six days): significant reductions in IL-12p40, TNF-α, and RANTES | Body weight, second study ([4]; 100 mg/kg daily, starting on Day 3): significant decreases in body weight | Lung NQO1 enzyme activity (with increases in total GSH), second study ([4]; 10 and 30 mg/kg): significant induction of NQO1 enzyme activity | BALF pro-inflammatory markers, first study ([4]; 30, 100, or 150 mg/kg orally once daily for three days): significant reduction in IL-12p40 at all doses and in TNF-α at the 100 and 150 mg/kg doses | Peak reductions in TNF-α, IL-6, and IL-12 in BALF ([4]; QD×3, LPS 1 h after last dose, BALB/c mice): 50%-80% | Ki (CYP3A4/5): ~500 nM | NQO1 protein levels [5]: increased NQO1 protein levels in SH-SY5Y cells in a dose-dependent manner | Aqueous humor protein [6]: reduction in aqueous humor protein similar to that of the highest concentration of any of the other reference compounds | NQO1 and HMOX1 protein levels [7]: increased NQO1 and HMOX1 protein levels at concentrations up to 125 nM | NQO1 activity induction, Kidney (NQO1 activity): 10.9 | NQO1 activity induction, Liver (NQO1 activity): 10.9 | NQO1 activity induction, Lung (NQO1 activity): 1.75
